Eight molecules from ChEMBL document CHEMBL1201862, “PubChem BioAssay data set” (2004) can be followed below.

The source made the active and inactive calls. Bounds are passed on as bounds.

Broadly, the IC50 is the concentration at which inhibition is half-maximal. A word on the EC50: it is the concentration needed to bring the measured effect to its halfway point. In general, AC50 refers to the midpoint of the concentration-response curve, whichever way the signal moves.

Assay [1] concerns the target T1, Protein phosphatase methylesterase 1 (Homo sapiens, UniProt Q9Y570). Description: endogenous PME-1 and serine hydrolase inhibition – cell lysate, mouse brain cytosol, FP-rhodamine, gel ABPP, selectivity assay for PME-1 inhibitor project, dose response, panel member PME-1 Assay Panel member description: Inhibition of endogenously expressed PME-1 (AID 2366).
The target in assay [2] is T1, Protein phosphatase methylesterase 1. In words: Late stage results from the probe development effort to identify inhibitors of the protein methylesterase PME-1: Gel-based Activity-Based Protein Profiling (ABPP) IC50: Purified enzyme. It is filed as functional.
Assay [3] concerns the target Troponin, cardiac muscle (Homo sapiens, UniProt P19429+P45379+P63316). In words: Fluorescence-based biochemical high throughput dose response assay for activators of the calcium sensitivity of cardiac Regulated Thin Filaments (RTF). [Related pubchem assays (depositor defined):AID493008, AID493018, AID504382, AID504383]. In kind it is protein-complex assay.
The target of assay [4] is T2, Phosphomannomutase 2 (Homo sapiens, UniProt O15305).
T2 sequence (O15305 whole entry): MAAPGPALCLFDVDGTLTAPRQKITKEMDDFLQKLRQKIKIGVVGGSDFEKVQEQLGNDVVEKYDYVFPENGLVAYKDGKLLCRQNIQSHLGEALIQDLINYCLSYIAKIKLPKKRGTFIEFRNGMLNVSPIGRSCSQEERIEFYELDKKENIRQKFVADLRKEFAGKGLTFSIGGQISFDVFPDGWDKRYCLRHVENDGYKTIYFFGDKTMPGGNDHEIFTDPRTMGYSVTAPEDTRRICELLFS
Description: Counter screen SAR assay for PMM2 inhibitors via a fluorescence intensity assay. [Related pubchem assays (depositor defined):AID1545, AID1574]. A general note: The purpose of a counterscreen is to sort out artefacts and off-target activity.

In assay [5] the target is T3, Alkaline phosphatase, tissue-nonspecific isozyme (Homo sapiens, UniProt P05186).
T3 sequence (P05186 whole entry): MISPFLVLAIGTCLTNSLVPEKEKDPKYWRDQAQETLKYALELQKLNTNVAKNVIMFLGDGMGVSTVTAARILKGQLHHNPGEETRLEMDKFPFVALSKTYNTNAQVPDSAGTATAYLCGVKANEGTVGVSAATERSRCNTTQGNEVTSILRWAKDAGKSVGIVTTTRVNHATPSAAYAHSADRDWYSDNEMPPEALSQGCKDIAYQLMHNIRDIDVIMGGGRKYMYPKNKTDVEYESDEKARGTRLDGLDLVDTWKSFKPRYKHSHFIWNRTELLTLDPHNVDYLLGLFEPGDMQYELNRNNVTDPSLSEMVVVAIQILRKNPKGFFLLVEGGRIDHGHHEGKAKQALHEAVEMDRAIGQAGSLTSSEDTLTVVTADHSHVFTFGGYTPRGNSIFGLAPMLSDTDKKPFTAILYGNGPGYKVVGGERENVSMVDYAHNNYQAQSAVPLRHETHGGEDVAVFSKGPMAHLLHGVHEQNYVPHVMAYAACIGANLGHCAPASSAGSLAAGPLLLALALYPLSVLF
Description: potency against alkaline phosphatase TNAP – biochemical, luminescent, dose response, SAR follow-up (AID 1056).

For assay [6], the target named is T4, Mannose-6-phosphate isomerase (Homo sapiens, UniProt P34949).
T4 sequence (P34949 whole entry): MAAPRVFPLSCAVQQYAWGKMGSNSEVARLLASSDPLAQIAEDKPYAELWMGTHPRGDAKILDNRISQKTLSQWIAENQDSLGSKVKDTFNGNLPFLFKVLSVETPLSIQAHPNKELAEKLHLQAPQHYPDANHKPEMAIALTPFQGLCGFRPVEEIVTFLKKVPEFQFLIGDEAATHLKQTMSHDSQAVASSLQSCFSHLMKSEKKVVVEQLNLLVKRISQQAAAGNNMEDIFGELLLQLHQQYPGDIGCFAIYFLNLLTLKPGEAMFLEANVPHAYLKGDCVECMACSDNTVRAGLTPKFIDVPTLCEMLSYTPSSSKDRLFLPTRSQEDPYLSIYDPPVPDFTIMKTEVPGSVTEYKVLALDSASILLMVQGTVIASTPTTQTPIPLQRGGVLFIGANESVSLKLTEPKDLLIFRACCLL
In words: Confirmation of compounds inhibiting phosphomannose isomerase (PMI) via a fluorescence intensity assay using a high concentration of mannose 6-phosphate. [Related pubchem assays (depositor defined):AID1209, AID1220, AID1545, AID1553, AID1620].

The target in assay [7] is T4, Mannose-6-phosphate isomerase. Description: phosphomannose isomerase inhibition – biochemical, fluorescence intensity, confirmation (AID 1535).
The target of assay [8] is Phosphoethanolamine/phosphocholine phosphatase (Homo sapiens, UniProt Q8TCT1). In words: SAR assay for compounds that inhibit PHOSPHO1. [Related pubchem assays (depositor defined):AID1545, AID1565, AID1574].
Chain of Phosphoethanolamine/phosphocholine phosphatase (Q8TCT1 whole entry): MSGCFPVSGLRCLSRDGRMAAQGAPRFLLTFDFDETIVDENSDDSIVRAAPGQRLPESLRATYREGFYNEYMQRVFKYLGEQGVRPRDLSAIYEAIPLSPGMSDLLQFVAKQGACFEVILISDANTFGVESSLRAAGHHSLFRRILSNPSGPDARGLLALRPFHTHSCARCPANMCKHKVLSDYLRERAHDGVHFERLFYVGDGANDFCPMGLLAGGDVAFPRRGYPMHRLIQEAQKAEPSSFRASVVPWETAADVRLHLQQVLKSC
Assay [9] can be described thus: HEK-293T viability loss after treatment – luminescence, T-cell screen hits, cytotoxicity control for TCR NF-kB inhibitor project, dose response (AID 489026).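 Further: cells exposed to compound about 14 hours before the viability readout.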 In kind it is functional, cell-based.
The subject of assay [10] is J774.A1. In words: Confirmation of image-based Screening Assay for Inhibitors of Phagocytosis. [Related pubchem assays (depositor defined):AID1029, AID1643]. It is filed as functional, cell-based. Conditions: Mus musculus.
Assay [11] relates to BJ. Description: BJ-TERT fibroblast viability loss – cell-based, RAS-independent, luminescence, dose response (AID 1933). It is filed as functional. The conditions noted are these: Homo sapiens.
Assay [12] addresses Mitochondrial peptide methionine sulfoxide reductase (Bos taurus, UniProt P54149). Description: Absorbance-based biochemical high throughput dose response assay for activators of Methionine sulfoxide reductase A (MsrA). In kind it is functional.
A short description of assay [13]: fluconazole-exposed Candida albicans growth modulators – fluorescence, retest, confirmation (AID 2467). In kind it is functional, cell-based.
The subject of assay [14] is BJ. In words: cells. In kind it is functional, cell-based. Conditions: Homo sapiens.
Assay [15] can be described thus: luciferase reporter signal suppression in cells – H4 neuroglioma cells, luminescence, dose response (AID 1990). In kind it is functional, cell-based. On the technique in general: In a reporter assay the amount or activity of a reporter protein is the signal.
Assay [16] concerns INS1. Description: INS-1E survival protection against cytokine death – cell-based, luminescence, retest, dose response (AID 449756).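 Further: cell death triggered by IL-1 beta plus TNF-alpha plus IFN-gamma mixture; protective hits raise ATP signal compared with cytokine alone wells.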 It is filed as functional. Conditions: Rattus norvegicus, INS1.
A short description of assay [17]: Luminescence Cell-Based Dose Response HTS to Identify Inhibitors of 5'UTR Stem-Loop Driven Prion Protein mRNA Translation in H4 Neuroglioblastoma Cells. [Related pubchem assays: 1827 (Project Summary), 1813 (Primary HTS)]. It is filed as functional.
Assay [18] can be described thus: DRD fibroblast viability loss – cell-based, non-viral oncogenic, luminescence, dose response (AID 1934). It is filed as functional. The conditions noted are these: Homo sapiens.
The target of assay [19] is NACHT, LRR and PYD domains-containing protein 3 (Homo sapiens, UniProt Q96P20). In words: NALP3 inhibitors in yeast, dose response, luminescent (AID 488799). In kind it is functional.
Chain of NACHT, LRR and PYD domains-containing protein 3 (Q96P20 whole entry, the tested form may be a part): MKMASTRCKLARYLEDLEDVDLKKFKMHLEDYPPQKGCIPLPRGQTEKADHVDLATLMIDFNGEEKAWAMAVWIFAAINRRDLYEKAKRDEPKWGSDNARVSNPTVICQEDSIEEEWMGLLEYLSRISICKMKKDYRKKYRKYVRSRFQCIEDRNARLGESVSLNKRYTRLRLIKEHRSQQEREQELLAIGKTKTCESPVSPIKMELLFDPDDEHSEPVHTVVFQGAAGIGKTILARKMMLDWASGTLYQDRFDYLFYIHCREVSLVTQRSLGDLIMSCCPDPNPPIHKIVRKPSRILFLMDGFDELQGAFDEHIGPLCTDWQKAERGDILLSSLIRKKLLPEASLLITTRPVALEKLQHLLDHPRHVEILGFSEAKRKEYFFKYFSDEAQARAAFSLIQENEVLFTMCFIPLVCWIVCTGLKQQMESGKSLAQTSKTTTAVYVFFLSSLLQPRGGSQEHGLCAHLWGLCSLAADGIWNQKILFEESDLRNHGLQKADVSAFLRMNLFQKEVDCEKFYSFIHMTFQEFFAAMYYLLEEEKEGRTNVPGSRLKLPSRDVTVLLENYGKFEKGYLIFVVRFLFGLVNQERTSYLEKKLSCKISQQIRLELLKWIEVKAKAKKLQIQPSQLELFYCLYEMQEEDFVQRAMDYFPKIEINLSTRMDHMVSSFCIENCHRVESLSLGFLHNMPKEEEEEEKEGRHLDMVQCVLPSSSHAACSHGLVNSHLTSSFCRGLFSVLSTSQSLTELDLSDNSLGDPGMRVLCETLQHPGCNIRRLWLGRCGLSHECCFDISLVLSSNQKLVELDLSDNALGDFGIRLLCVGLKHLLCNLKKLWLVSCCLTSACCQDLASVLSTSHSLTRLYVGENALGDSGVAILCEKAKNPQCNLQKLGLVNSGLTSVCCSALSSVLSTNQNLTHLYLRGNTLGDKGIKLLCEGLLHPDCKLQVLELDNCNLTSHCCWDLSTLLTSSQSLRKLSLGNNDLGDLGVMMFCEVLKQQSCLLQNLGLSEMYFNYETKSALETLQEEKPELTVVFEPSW
The subject of assay [20] is BJ. Description: BJ-TERT-LT-ST fibroblast viability loss – cell-based, RAS-independent, luminescence, dose response (AID 1935).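 Further: BJ fibroblasts immortalized with TERT plus LT and ST oncogenes.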 It is filed as functional. The conditions noted are these: Homo sapiens.
Assay [21] is described as follows: alpha-synuclein stem-loop luciferase translation blockers – H4 neuroglioma cells, luminescence, confirmation (AID 1988). In kind it is functional, cell-based.
A short description of assay [22]: NIH-3T3 fibroblast cytotoxicity, dose response, cytotoxicity control, cell-based, fluorescence, Alamar Blue, secondary assay (AID 2327).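 Further: NIH-3T3 mouse fibroblasts cultured with fluconazole at 8 µg/mL.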 It is filed as functional. For orientation: Resazurin is reduced to fluorescent resorufin, in cell work by metabolically active cells.
Assay [23] can be described thus: microbe, parasite or virus in culture. In kind it is functional. Conditions: Mycobacterium tuberculosis.
The target in assay [24] is T5, Cannabinoid receptor 1 (Homo sapiens, UniProt P21554). In words: SAR analysis of agonists of the Cannabinoid Receptor 1 using an Image-Based Assay - Set 3. [Related pubchem assays (depositor defined):AID1961, AID1965]. In kind it is functional.
T5 sequence (P21554 whole entry): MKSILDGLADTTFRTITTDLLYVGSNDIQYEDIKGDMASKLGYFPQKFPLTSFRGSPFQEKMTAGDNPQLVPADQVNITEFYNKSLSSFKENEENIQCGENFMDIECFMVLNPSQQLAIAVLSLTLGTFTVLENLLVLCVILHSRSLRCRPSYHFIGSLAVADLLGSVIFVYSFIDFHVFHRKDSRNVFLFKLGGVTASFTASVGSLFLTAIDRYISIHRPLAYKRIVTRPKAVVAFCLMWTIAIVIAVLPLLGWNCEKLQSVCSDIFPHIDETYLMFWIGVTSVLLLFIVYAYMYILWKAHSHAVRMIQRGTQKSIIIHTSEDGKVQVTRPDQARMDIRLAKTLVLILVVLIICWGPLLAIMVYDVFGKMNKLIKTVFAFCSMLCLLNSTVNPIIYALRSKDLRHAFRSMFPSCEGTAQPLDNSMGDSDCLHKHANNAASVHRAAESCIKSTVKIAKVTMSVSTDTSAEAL
Assay [25] addresses T6, G-protein coupled receptor 35 (Homo sapiens, UniProt Q9HC97). In words: SAR analysis of Agonists of the GPR35 Receptor using an Image-Based Assay - Set 3. [Related pubchem assays (depositor defined):AID1961, AID1965]. It is filed as functional.
Assay [26] addresses T6, G-protein coupled receptor 35. In words: SAR analysis of Antagonists of the GPR35 Receptor using an Image-Based Assay - Set 4. [Related pubchem assays (depositor defined):[…]]. It is filed as functional.
Assay [27] concerns the target T5, Cannabinoid receptor 1. In words: SAR analysis of antagonists of the Cannabinoid Receptor 1 using an Image-Based Assay - Set 3. [Related pubchem assays (depositor defined):AID1961, AID1965]. In kind it is functional.
Assay [28] has as its target G-protein coupled receptor 55 (Homo sapiens, UniProt Q9Y2T6). In words: SAR analysis of selective Agonists of GPR55 using an Image-Based Assay - Set 2. [Related pubchem assays (depositor defined):AID1961, AID1965]. In kind it is functional.
For assay [29], the target named is T7, Cannabinoid receptor 2 (Homo sapiens, UniProt P34972). Description: SAR analysis of antagonists of the Cannabinoid Receptor 2 using an Image-Based Assay - Set 2. [Related pubchem assays (depositor defined):AID1961, AID1965]. It is filed as functional.
T7 sequence (P34972 whole entry): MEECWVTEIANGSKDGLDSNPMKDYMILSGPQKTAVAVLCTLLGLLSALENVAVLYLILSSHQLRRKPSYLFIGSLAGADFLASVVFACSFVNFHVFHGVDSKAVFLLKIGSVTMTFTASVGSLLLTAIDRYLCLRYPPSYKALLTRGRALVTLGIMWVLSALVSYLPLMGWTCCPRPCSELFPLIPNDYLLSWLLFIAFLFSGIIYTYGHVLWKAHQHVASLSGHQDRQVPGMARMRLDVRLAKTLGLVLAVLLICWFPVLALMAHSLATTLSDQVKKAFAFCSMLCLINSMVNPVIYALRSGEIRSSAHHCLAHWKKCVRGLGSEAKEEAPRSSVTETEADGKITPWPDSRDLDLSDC
The target in assay [30] is T7, Cannabinoid receptor 2. In words: SAR analysis of agonists of the Cannabinoid Receptor 2 using an Image-Based Assay - Set 2. [Related pubchem assays (depositor defined):AID1961, AID1965]. It is filed as functional.
In assay [31] the target is T8, Sphingosine 1-phosphate receptor 4 (Homo sapiens, UniProt O95977).
T8 sequence (O95977 whole entry): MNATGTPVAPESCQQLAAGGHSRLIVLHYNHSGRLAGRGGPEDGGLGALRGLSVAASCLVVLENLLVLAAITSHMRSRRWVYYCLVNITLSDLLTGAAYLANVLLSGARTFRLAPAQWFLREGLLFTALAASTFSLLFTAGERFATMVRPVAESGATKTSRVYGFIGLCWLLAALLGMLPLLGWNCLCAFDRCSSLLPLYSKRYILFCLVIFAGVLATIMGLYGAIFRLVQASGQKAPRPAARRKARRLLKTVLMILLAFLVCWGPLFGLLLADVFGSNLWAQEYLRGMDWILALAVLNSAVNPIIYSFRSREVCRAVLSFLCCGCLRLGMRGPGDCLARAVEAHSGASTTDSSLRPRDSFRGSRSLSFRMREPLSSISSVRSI
In words: Late-stage fluorescence dose response cell-based assay to identify agonists of the Sphingosine 1-Phosphate Receptor 4 (S1P4): purchased compounds EC50. [Related pubchem assays (depositor defined):AID1509, AID1523, AID1563, AID1686, AID1701, AID1801]. In kind it is functional.

Assay [32] concerns the target DNA dC->dU-editing enzyme APOBEC-3A (Homo sapiens, UniProt P31941). Description: A3A deaminase inhibition for selectivity – biochemical, dose response (AID 504722). In kind it is functional.
For assay [33], the target named is DNA dC->dU-editing enzyme APOBEC-3G (Homo sapiens, UniProt Q9HC16). Description: Dose Response confirmation of small molecule APOBEC3G DNA Deaminase Inhibitors via a fluorescence-based single-stranded DNA deaminase assay. [Related pubchem assays (depositor defined):AID493012, AID493028]. It is filed as functional.
Chain of DNA dC->dU-editing enzyme APOBEC-3G (Q9HC16 whole entry): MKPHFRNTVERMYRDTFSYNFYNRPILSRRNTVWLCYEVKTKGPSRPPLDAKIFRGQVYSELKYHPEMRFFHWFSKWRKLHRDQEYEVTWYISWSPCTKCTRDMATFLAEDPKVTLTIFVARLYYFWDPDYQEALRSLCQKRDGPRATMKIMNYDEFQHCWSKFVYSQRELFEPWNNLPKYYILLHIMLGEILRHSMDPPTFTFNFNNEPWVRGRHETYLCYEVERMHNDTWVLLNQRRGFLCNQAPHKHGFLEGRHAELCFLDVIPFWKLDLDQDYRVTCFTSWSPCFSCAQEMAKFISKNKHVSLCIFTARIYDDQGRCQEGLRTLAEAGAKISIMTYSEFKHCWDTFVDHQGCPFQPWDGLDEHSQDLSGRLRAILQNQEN

T6 sequence (Q9HC97 whole entry): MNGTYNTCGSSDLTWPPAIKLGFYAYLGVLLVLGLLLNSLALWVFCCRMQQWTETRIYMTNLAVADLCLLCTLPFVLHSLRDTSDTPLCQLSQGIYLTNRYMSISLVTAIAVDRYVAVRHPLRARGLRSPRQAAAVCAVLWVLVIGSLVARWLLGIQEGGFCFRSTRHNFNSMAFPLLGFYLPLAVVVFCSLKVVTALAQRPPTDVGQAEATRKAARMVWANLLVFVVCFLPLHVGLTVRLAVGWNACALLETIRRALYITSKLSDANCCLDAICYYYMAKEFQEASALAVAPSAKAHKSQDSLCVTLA
T1 sequence (Q9Y570 whole entry): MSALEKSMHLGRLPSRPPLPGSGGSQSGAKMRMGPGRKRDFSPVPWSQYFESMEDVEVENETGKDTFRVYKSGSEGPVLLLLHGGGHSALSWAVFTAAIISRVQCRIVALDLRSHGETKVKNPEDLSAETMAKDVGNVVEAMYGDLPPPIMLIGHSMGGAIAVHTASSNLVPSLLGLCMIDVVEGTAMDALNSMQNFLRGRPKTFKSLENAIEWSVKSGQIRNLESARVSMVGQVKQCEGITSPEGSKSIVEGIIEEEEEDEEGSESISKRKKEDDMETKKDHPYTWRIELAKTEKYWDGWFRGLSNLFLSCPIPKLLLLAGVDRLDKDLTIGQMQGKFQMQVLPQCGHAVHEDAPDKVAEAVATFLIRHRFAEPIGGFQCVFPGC
Chain of G-protein coupled receptor 55 (Q9Y2T6 whole entry): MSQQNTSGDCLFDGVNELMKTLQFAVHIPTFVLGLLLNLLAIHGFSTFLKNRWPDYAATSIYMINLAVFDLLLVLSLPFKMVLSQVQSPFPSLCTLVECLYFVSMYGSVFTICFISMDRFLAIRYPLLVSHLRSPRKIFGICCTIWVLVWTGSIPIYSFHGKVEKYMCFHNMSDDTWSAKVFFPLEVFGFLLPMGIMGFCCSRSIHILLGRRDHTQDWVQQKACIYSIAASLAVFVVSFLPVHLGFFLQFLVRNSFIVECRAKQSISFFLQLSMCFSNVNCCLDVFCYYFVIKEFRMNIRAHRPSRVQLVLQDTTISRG
Chain of DNA dC->dU-editing enzyme APOBEC-3A (P31941 whole entry): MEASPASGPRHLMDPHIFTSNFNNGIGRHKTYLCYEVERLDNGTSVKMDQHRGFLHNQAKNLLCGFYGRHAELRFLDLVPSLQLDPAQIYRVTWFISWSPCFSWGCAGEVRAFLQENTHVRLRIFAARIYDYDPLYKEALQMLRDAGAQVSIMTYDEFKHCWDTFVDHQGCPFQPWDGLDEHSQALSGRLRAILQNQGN
Chain of Mitochondrial peptide methionine sulfoxide reductase (P54149 whole entry): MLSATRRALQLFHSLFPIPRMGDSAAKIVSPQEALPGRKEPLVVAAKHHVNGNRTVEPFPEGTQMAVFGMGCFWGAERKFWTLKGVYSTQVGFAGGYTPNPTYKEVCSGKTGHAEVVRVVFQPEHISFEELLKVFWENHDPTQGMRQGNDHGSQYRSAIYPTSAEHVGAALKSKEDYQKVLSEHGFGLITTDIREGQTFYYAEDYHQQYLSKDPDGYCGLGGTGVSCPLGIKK

`CS(=O)(=O)/C(C#N)=C/c1ccc([N+](=O)[O-])cc1`: the IC50 in assay [1] is > 20 µM (inactive); in assay [2], > 20 µM (not active).
Regarding `CCOc1cc(N2CCOCC2)c(OCC)cc1NC(=O)CCS(=O)(=O)c1ccc(Cl)cc1`, the EC50 in assay [3] was > 71.5 µM (inactive).
For `Cc1ccc(C)c(-n2sc3ccccc3c2=O)c1`, the IC50 is 17.9 µM (active) in assay [4]; > 100 µM (inactive) in assay [5]; 5.51 µM (active) in assay [6]; 1.67 µM (active) in [7]; 5.04 µM (inactive) in assay [8].
Take `CCN(CC)c1ccc(NC(=O)c2cc(OC)cc(OC)c2)c(C)c1`: the IC50 is > 80 µM (inactive) in assay [9] and 0.13 µM (active) in assay [10].
Take `CCN(CC)c1ccc2nc3ccccc3[n+](CC)c2c1`: the EC50 is 16.9 µM (active) in assay [11]; 19.2 µM (inactive) in assay [12]; 0.686 µM (active) in [13]; 23.6 µM (active) in assay [14]; 11.2 µM (active) in assay [15]; 25.9 µM (active) in assay [17]. The EC50 was 15.2 µM (active) in assay [18], > 150 µM (inconclusive) in [20], 9.49 µM (active) in assay [21] and 96.1 µM (active) in [22]. Besides, the half-maximal activity concentration (AC50) in [16] was 0.602 µM (active). Moreover, the IC50 in assay [19] was 14.3 µM (active); in assay [9], 48.8 µM (inactive). The CC50 in assay [23] is > 40 µM (active).
`O=C(Nc1cc(S(=O)(=O)N2CCOCC2)ccc1Cl)c1cc2c(s1)CCCC2`: the EC50 was 7.87 µM (active) in [24], > 32 µM (inactive) in assay [25], 0.779 µM (active) in assay [28] and > 32 µM (inactive) in assay [30]. The IC50 in [26], in [27] and in [29] was > 32 µM (inactive) in each case.
Regarding `CCCc1ccc(C(=O)C(C)OC(=O)c2c(C)nn(Cc3ccccc3)c2Cl)cc1` (centres undefined), the EC50 in assay [31] was > 50 µM (inactive).
Take `FC(F)Oc1ccc(/C=N/n2c(S)nnc2Cc2ccc(Br)cc2)cc1`: the IC50 in assay [32] is > 100 µM (inactive); in assay [33], 6.93 µM (active).
